The target of the test is Transcription factor Jun (Homo sapiens, UniProt P05412). Put plainly: Inhibition of TPA-induced AP-1 activation in cells expressing beta-lactamase after 18 hrs using FRET substrate by cell-based high-throughput screening assay.
Chain of Transcription factor Jun (P05412 whole entry): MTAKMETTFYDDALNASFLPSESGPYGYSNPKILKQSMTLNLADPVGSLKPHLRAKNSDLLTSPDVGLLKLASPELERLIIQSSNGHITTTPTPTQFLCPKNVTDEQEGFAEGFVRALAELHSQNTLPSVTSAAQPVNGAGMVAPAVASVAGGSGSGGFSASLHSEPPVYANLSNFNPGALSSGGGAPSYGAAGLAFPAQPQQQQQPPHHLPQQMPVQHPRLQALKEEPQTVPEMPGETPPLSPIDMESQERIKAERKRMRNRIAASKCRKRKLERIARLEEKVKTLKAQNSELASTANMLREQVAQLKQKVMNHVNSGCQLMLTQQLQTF

`CC(C)[C@H]1OC(=O)C=C2[C@]3(C)[C@H]4[C@H](OC(=O)[C@@]4(C)[C@@H](O)[C@H]4O[C@H]43)[C@H]3O[C@]213` [INUMAKILACTONE]: the half-maximal inhibitory concentration (IC50) (commonly the concentration that gives 50% inhibition) was determined as 4000 nM.

`CC(C)[C@H]1OC(=O)C=C2C1=C[C@H]1OC(=O)[C@@]3(C)CCC[C@@]2(C)[C@@H]13` [NAGILACTONE F] registered a half-inhibitory concentration (IC50) of 1500 nM.

The values above are taken from ChEMBL document CHEMBL1765002, “Inhibitors of the oncogenic transcription factor AP-1 from Podocarpus latifolius” (J Nat Prod, 2011).
